Test [1] concerns Streptococcus pneumoniae. The experiment in a line: Antibacterial activity against erythromycin-resistant Streptococcus pneumoniae AB11 expressing erm and mef gene by the broth microdilution method. The format is functional. On the technique in general: In broth dilution the organism is exposed to a series of concentrations in liquid medium.
Test [2] has as its system Staphylococcus aureus. The experiment in a line: Antibacterial activity against penicillin-resistant Staphylococcus aureus by the broth microdilution method. In kind it is functional.
In test [3] the test system is Streptococcus pneumoniae. Description: Antibacterial activity against erythromycin-resistant Streptococcus pneumoniae A22072 expressing mef gene by the broth microdilution method. The format is functional.
Test [4] concerns Streptococcus pneumoniae. Description: Ratio of MIC for erythromycin-resistant Streptococcus pneumoniae B1 expressing erm gene to MIC of reference compound for the same strain.
Test [5] has as its system Staphylococcus aureus. Description: Antibacterial activity against erythromycin-susceptible Staphylococcus aureus ATCC 25923 by the broth microdilution method. In kind it is functional.
Test [6] has as its system Staphylococcus aureus. Description: Antibacterial activity against […] Staphylococcus aureus ATCC 29213 by the broth microdilution method. The format is functional.
Test [7] relates to Streptococcus pneumoniae. Description: Antibacterial activity against erythromycin-susceptible Streptococcus pneumoniae ATCC 49619 by the broth microdilution method. In kind it is functional.
The subject of test [8] is Streptococcus pneumoniae. Description: Antibacterial activity against erythromycin-resistant Streptococcus pneumoniae B1 expressing erm gene by the broth microdilution method. In kind it is functional.
For test [9], the system named is Streptococcus pneumoniae. The experiment in a line: Ratio of erythromycin-A MIC to compound MIC for erythromycin-resistant Streptococcus pneumoniae A22072 expressing mef gene. The format is functional.
Test [10] concerns Streptococcus pneumoniae. Description: Ratio of MIC for Streptococcus pneumoniae AB11 expressing erm and mef gene to MIC of reference compound for the same strain.
The subject of test [11] is Streptococcus pneumoniae. The experiment in a line: Ratio of azithromycin MIC to compound MIC for erythromycin-resistant Streptococcus pneumoniae A22072 expressing mef gene. In kind it is functional.

Broadly, the MIC is the lowest concentration found to suppress growth. A lower MIC goes with inhibition by little substance.

Values after ≈ are worked out from the molar mass of the structure shown.

In the case of `CC[C@H]1OC(=O)[C@H](C)[C@@H](O[C@H]2C[C@@](C)(OC)[C@@H](OC(=O)NNC(=O)c3ccc(C)cc3)[C@H](C)O2)[C@H](C)[C@@H](O[C@@H]2O[C@H](C)C[C@H](N(C)C)[C@H]2O)[C@](C)(O)C[C@@H](C)CN(C)[C@H](C)[C@H]2OC(=O)O[C@@]21C`, the MIC in test [1] was determined as 16 µg/mL (≈ 16.8 µM); in test [2], 4 µg/mL (≈ 4.21 µM); in test [3], 0.12 µg/mL (≈ 0.126 µM); in test [5], 4 µg/mL (≈ 4.21 µM); in test [6] it was 4 µg/mL (≈ 4.21 µM); in [7], 1 µg/mL (≈ 1.05 µM). This compound also had an MIC in test [8] of 2 µg/mL (≈ 2.1 µM). The Ratio in test [4] stood at 64; in test [9], 64; in test [10], 16; in test [11], 32.

As to `CC[C@H]1OC(=O)[C@H](C)[C@@H](O[C@H]2C[C@@](C)(OC)[C@@H](OC(=O)NCCNC(=O)c3cc([N+](=O)[O-])cc([N+](=O)[O-])c3)[C@H](C)O2)[C@H](C)[C@@H](O[C@@H]2O[C@H](C)C[C@H](N(C)C)[C@H]2O)[C@](C)(O)C[C@@H](C)CN(C)[C@H](C)[C@H]2OC(=O)O[C@@]21C`, the MIC in test [1] stood at 8 µg/mL (≈ 7.58 µM); in test [2], 1 µg/mL (≈ 0.948 µM); in test [3] it was 0.12 µg/mL (≈ 0.114 µM); in test [5] it was 16 µg/mL (≈ 15.2 µM); in [6], 8 µg/mL (≈ 7.58 µM); in [7], 0.12 µg/mL (≈ 0.114 µM). The compound further came in with an MIC in [8] of 1 µg/mL (≈ 0.948 µM). In addition, the Ratio in test [4] stood at 128; in test [9], 64; in test [10], 32; in test [11], 32.

For `CC[C@H]1OC(=O)[C@H](C)[C@@H](O[C@H]2C[C@@](C)(OC)[C@@H](OC(=O)NCCCCNC(=O)c3cc([N+](=O)[O-])cc([N+](=O)[O-])c3)[C@H](C)O2)[C@H](C)[C@@H](O[C@@H]2O[C@H](C)C[C@H](N(C)C)[C@H]2O)[C@](C)(O)C[C@@H](C)CN(C)[C@H](C)[C@H]2OC(=O)O[C@@]21C`, the MIC stood at 8 µg/mL (≈ 7.39 µM) in test [1]; 16 µg/mL (≈ 14.8 µM) in test [2]; 0.12 µg/mL (≈ 0.111 µM) in [3]; 2 µg/mL (≈ 1.85 µM) in test [5]; 4 µg/mL (≈ 3.69 µM) in test [6]; 0.12 µg/mL (≈ 0.111 µM) in [7]. This compound also displayed an MIC in test [8] of 1 µg/mL (≈ 0.923 µM). Further, the Ratio came to 128 in test [4], 64 in [9], 32 in [10] and 32 in [11].

Source of the values: ChEMBL document CHEMBL1828549, “Novel C-4'' modified azithromycin analogs with remarkably enhanced activity against erythromycin-resistant Streptococcus pneumoniae: the synthesis and antimicrobial evaluation” (2011).
